Tests used:
[1] = system: lipid metabolism activity (β-oxidation activity); experiment: Lipid metabolism activity (β-oxidation activity) of liver and skeletal muscle after oral administration; format: in vivo, mice
Method: Seven-week-old Balb/c male mice were divided into 2 groups, to which a physiological saline (control) or nootkatone at 200 mg/kg of body weight was then orally administered for 10 consecutive days. Then, their livers and skeletal muscles (gastrocnemius muscle+soleus muscle) were collected. The livers and skeletal muscles were respectively homogenized in a buffer (250 mM sucrose, 1 mM EDTA in 10 mM HEPES (pH 7.2)), and the insoluble tissue residues were removed by centrifugation to obtain supernatants. The obtained supernatants were measured for protein levels. The protein levels were adjusted among samples to constant levels, and the samples were used in the measurement of lipid metabolism activity (β-oxidation activity). A 100-μg aliquot of the supernatant protein was reacted at 37° C. for 20 minutes with 0.1 μCi [^14C]-palmitic acid in a buffer (50 mM Tris-HCl (pH 8.0), 40 mM NaCl, 2 mM KCl, 2 mM MgCl2, 1 mM DTT, 5 mM ATP, 0.2 mM L-carnitine, 0.2 mM NAD, 0.06 mM FAD, 0.12 mM CoA, 3 mM α-cyclodextrin) at the final volume of 200 μL. The reaction was terminated with 200 μL of 0.6 N perchloric acid, and the unreacted [^14C]-palmitic acid was removed 3 times with 1 mL hexane. Lipid-degrading activity was measured by measuring radioactivity of the aqueous layer.
The degree of the lipid-degrading activity was indicated as a relative value to that of the control defined as 100.

[2] = Endurance-enhancing and antifatigue effects, maximum swimming time of mice in a current water pool; format: in vivo; details: for Maximum swimming time: 7 L/min, Balb/c male mice
Method: The endurance-enhancing and antifatigue effects of nootkatone were evaluated as described below. Nootkatone used was a product of Avocado.
The endurance-enhancing and antifatigue effects were evaluated according to the measurement method of maximum swimming time of mice (Reference: Am J Physiol Regul Integr Comp Physiol, Vol. 288, R708-R715, 2005) in a current water pool. The experimental pool used was a clear acrylic pool (90 cm long×45 cm wide×45 cm deep) filled to a depth of 38 cm with water maintained at 34° C. with a heater. The current in the pool was generated with a pump (C-P60H, manufactured by Hitachi), and the current speed was adjusted by connecting Water flowmeter (Tofco) to the pump and opening and closing a valve. The current speed was measured with a digital current meter (SV-101-25S, Sankou Seimitsu Kogyo).
Experimental animals used were 5-week-old Balb/c male mice (Charles River Laboratories, Inc.). The mice were preliminarily raised for 1 week under a constant raising environment (23±2° C., light period: 7 a.m. to 7 p.m.) and acclimated. In subsequent 1-week training, the mice were accustomed to swimming exercise three times a week (subjected to swimming exercise for 30 minutes at a current speed of 5 L/min on the first day, and for 30 minutes at a current speed of 6 L/min on the third and fifth days). […] The mice were divided into 2 groups, a test diet group and a control diet group, each containing 8 mice, to prevent a difference in maximum swimming time between the groups. Diets prepared in the formulation composition shown in Table 8 were used to raise the mice for 10 weeks. During this period, the measurement of maximum swimming time (7 L/min) and training (6 L/min, 30 minutes) were performed once every week.

[3] = system: AMPKβ; experiment: AMPK-activating action in C2C12 muscle cells, AMPKβ phosphorylation (Western blot); format: cell-based, murine; details: 60 minutes, relative value to control defined as 100
Method: (§1) A muscle cell line (C2C12) was used to evaluate the AMPK-activating action of nootkatone according to the procedures below with AMPKα and AMPKβ phosphorylation as indexes.
Cells of the murine muscle cell line (C2C12) were seeded onto a 25 cm^2 flask and cultured in DMEM (+10% FBS, +antimicrobial agent) at 37° C. for 1 to 2 days. When the cells became confluent, the culture solution was removed, and the cells were washed with PBS (−) and further cultured for 7 to 8 days in fresh DMEM (2% (V/V) horse serum), which was in turn replaced by a fresh culture solution every 2 to 3 days. The culture solution was then removed, and the cells were washed with PBS (−) and further cultured in fresh DMEM (−FBS) for 1 day. After the removal of the culture solution, the cells were cultured in DMEM (−FBS) containing a predetermined concentration of nootkatone (obtained from Wako Pure Chemical Industries, Ltd.) for 60 minutes. […]
(§2) The concentration of the supernatant protein was measured, and the protein concentrations were then adjusted among samples to constant concentrations. […]
(§3) Predetermined amounts (approximately 20 to 40 μg) of the samples for electrophoresis were subjected to SDS-PAGE (12% gel) and transferred to a membrane. Then, phospho-AMPKα and phospho-AMPKβ were detected by using anti-phospho-AMPKα ([…]) antibodies (manufactured by Cell Signaling Technology, Inc.) or anti-phospho-AMPKβ (Ser108) antibodies (manufactured by Cell Signaling Technology, Inc.) as primary antibodies, anti-rabbit-HRP antibodies (manufactured by Amersham Biosciences) as secondary antibodies, and Phototope-HRP Western Detection System (manufactured by Cell Signaling Technology, Inc.) as a detection reagent. The degree of AMPK activation was indicated as a relative value to that of a control (sample-free group) defined as 100 by digitizing (pixelizing) detected band strength by image analysis (EDAS290 image analysis system; KODAK).

[4] = Antiobesity, antidiabetic and antilifestyle-related disease effects in C57BL/6 mice raised on high-fat diet; format: in vivo
Method: The antiobesity, antidiabetic, and antilifestyle-related disease effects of nootkatone were evaluated as described below.
Seven-week-old C57BL/6 male mice were divided into 3 groups each containing 10 mice and raised with each diet of the composition described in Table 2.
Twenty-two weeks later, their body weights were measured, while blood was collected from the mice under ether anesthesia and under non-fasting conditions to measure serum glucose, cholesterol, triglyceride, insulin, and leptin levels. The amount of visceral fat (epididymal fat, retroperitoneal fat, and perirenal fat) was also measured.

[5] = system: AMPKα; experiment: AMPK-activating action in C2C12 muscle cells, AMPKα phosphorylation (Western blot); format: cell-based, murine; details: for Phospho-AMPKα: 60 minutes, C2C12, relative value to control defined as 100
Method: as §1
Cells of the murine muscle cell line (C2C12) were seeded onto a 25 cm^2 flask and cultured in DMEM (+10% FBS, +antimicrobial agent) at 37° C. for 1 to 2 days. When the cells became confluent, the culture solution was removed, and the cells were washed with PBS (−) and further cultured for 7 to 8 days in fresh DMEM (2% (V/V) horse serum), which was in turn replaced by a fresh culture solution every 2 to 3 days. The culture solution was then removed, and the cells were washed with PBS (−) and further cultured in fresh DMEM (−FBS) for 1 day. After the removal of the culture solution, the cells were cultured in DMEM (−FBS) containing a predetermined concentration of nootkatone (obtained from Wako Pure Chemical Industries, Ltd.) for 60 minutes. After the culture solution was subsequently removed and the cells were washed with PBS (−), 200 μL of cell lysis solution (10 mmol/L Tris (pH 7.4), 50 mmol/L sodium chloride, 30 mmol/L sodium pyrophosphate, 0.5% (V/V) Triton X-100, protease inhibitor cocktail (SIGMA P2714), phosphatase inhibitor cocktail-1 (SIGMA P2850), phosphatase inhibitor cocktail-2 (SIGMA P5726)) was added and the cell lysis solution was collected with a cell scraper. The collected cell lysis solution was well homogenized by passing it through a syringe with a 23G needle three times and then left on ice for 30 minutes. The homogenate was centrifuged at 15000 r/min at 4° C. for 15 minutes, and the resulting supernatant protein was used in the measurement below.
as §2, §3

[6] = Group 3 (0.5% nootkatone), 22 weeks
[7] = Group 3: high-fat diet with 0.5% nootkatone, 22 weeks, C57BL/6 male mice
[8] = serum, non-fasting, Group 3: high-fat diet with 0.5% nootkatone, 22 weeks

C=C(C)[C@@H]1CCC2=CC(=O)C[C@@H](C)[C@]2(C)C1 (stereo in doubt) [Nootkatone, 4,4a,5,6,7,8-hexahydro-6-isopropenyl-4,4a-dimethyl-2(3H)-naphthalenone]
Lipid-degrading activity (β-oxidation activity), skeletal muscle ([1]; 200 mg/kg orally for 10 consecutive days, Balb/c male mice, gastrocnemius + soleus muscle, relative value to control defined as 100): 271 | Lipid-degrading activity (β-oxidation activity), liver ([1]; 200 mg/kg orally for 10 consecutive days, Balb/c male mice, relative value to control defined as 100): 273 | Lipid-degrading activity (β-oxidation activity) of the liver and skeletal muscle ([1]; mice given nootkatone 200 mg/kg, 10 days, versus control): remarkably increased | Maximum swimming time ([2]; after 10 week raising on test diet with 0.2% nootkatone): 40.01 ± 3.17 min | Maximum swimming time ([2]; before raising (baseline of test diet group)): 27.31 ± 1.72 min | Maximum swimming time after 10-week raising ([2]; test diet containing nootkatone as compared with the control diet group): significantly prolonged | Phospho-AMPKβ ([3]; nootkatone 50 μmol/L): 241 | Phospho-AMPKβ ([3]; nootkatone 100 μmol/L): 314 | Phospho-AMPKβ ([3]; nootkatone 150 μmol/L): 358 | Increment of body weights and amount of visceral fat ([4]; Group 3 (0.5% nootkatone) as compared with Group 2): remarkably reduced | Effect on rise in blood cholesterol level [4, 6]: excellent inhibitory effect | Effect on rise in blood insulin level [4, 6]: excellent inhibitory effect | Effect on rise in blood leptin level [4, 6]: excellent inhibitory effect | Effect on rise in blood triglyceride level [4, 6]: excellent inhibitory effect | Effect on rise in blood-glucose level [4, 6]: excellent inhibitory effect | Body weight [4, 7]: 30.4 g | Epididymal fat [4, 7]: 0.47 g | Perirenal fat [4, 7]: 0.07 g | Retroperitoneal fat [4, 7]: 0.15 g | Glucose [4, 8]: 212.3 mg/dL | Insulin [4, 8]: 1.26 ng/mL | Leptin [4, 8]: 6.2 ng/mL | Total cholesterol [4, 8]: 131.3 mg/dL | Triglyceride [4, 8]: 54.3 mg/dL | AMPK-activating action in the muscle cells ([5]; C2C12, summary of Table 1): strong AMPK-activating action | Phospho-AMPKα ([5]; nootkatone 50 μmol/L): 402 | Phospho-AMPKα ([5]; nootkatone 100 μmol/L): 952 | Phospho-AMPKα ([5]; nootkatone 150 μmol/L): 1077

From patent US20070054965A1, “AMPK activating agent” (Kao Corporation, priority 2005, published 2007)
